Test results taken from publication PMC6511062, “Preclinical candidate for the treatment of visceral leishmaniasis that acts through proteasome inhibition” (Proceedings of the National Academy of Sciences of the …, 2019).
“Also recorded” adds a separate entry of the source.

Test system: L. donovani proteasome β subunits
Test: Activity-based probe (UbiQ-018) labelling of L. donovani proteasome
Format: binding, Leishmania donovani
Conditions: 100 µM
Description: m. Activity-Based Probe Labelling of THP1 and L. donovani proteasome
Proteasome enriched fractions from THP1 (20 µg), L. donovani (10 µg) and L. donovani […]
µM for 1 h. Proteasome enriched fractions were also incubated with DMSO as control.
For all proteasome labelling experiments, the active-site probe Me4BodipyFL-Ahx3Leu3VS (UbiQ-018) was used at final concentration of 500 nM in sucrose buffer (50 mM Tris buffer pH 7.5, 5 mM magnesium chloride, 1 mM EDTA, 50 mM NaCl, 250 mM sucrose, 2 mM ATP, 1 mM DTT). Proteasome enriched fractions treated with […]
DMSO or test compounds, were incubated with the probe for 2h at RT. Samples were then denatured by addition of Laemmli sample buffer, heated to 95°C for 10 min and separated by electrophoresis on a 15% SDS-PAGE acrylamide gel. Following separation, gels were scanned in the fluorescein channel of a ChemiDoc reader (λ excitation/emission = 480/530 nm). Fluorescent proteins were excised and MALDI– TOF analysis carried out by the FingerPrints Proteomics service at the University of […]
10. Measuring Proteolytic activity of Leishmania tarentolae Proteasome […]
pre-prepared as a 10 mM stocks in 100 % DMSO and then diluted 1 in 3, over 11 points, prior to dispense of 100 nl of each dilution series into black, low volume, 384-well microplates. Proteasome was prepared as a 0.5 µg/mL working solution in assay buffer (50 mM HEPES (pH 7.5), 150 mM NaCl, 5 mM MgCl2, 5% glycerol, 1 mM CHAPS) and 5 µL was added using a Multidrop Micro (Thermo Fisher Scientific) to all wells containing compound dilutions on the test microplates. The microplates were then centrifuged for 1 min at 1000 rpm and incubated for 15 mins at 25 °C, prior to an assay initiating addition of 5 µl of fluorogenic substrate, which had been prepared as a 1 µM […]
The assay microplates were then centrifuged for 10 secs before using a Tecan M1000 Pro to monitor the increase of fluorescent intensity at 25 °C by excitation of the liberated Rhodamine110 at 485 nm and emission at 535 nm every 125 secs for 20 cycles. […]
calculate initial rates of reactions for all assay wells on the microplate by fitting to a linear regression model. The initial rates of reaction for all compound concentrations tested were normalised to the initial rates determined for 16 replicate control wells per microplate of both uninhibited reaction and no-proteasome background, and subsequently, IC50 values were determined by fitting the normalised data to the following four-parameter logistic model; y = a + (( b – a) / ( 1 + ( 10 ^ x / 10 ^ c ) ^ d ), where ‘a’ is the minimum, ‘b’ is […], ‘c’ is the IC50 and ‘d’ is […].
11. Cryo-EM of 20S Leishmania tarentolae proteasome a. Purification of 20S Leishmania tarentolae proteasome. […]

## O=C(Nc1ccc(F)c(-c2ccn3c(N4CCOCC4)cnc3n2)c1)N1CCCC1 [Compound 8]
L. donovani WT extracts
  UbiQ-018 labelling of proteasome subunits: selectively blocks labeling of β5; also recorded: selectively blocked UbiQ-018 labeling of the β5 subunit
L. donovani-resistant RES II extracts
  UbiQ-018 labelling of proteasome subunits: could not be abolished
